Measurements as given in the supplement of paper PMC11061612.

Tests used:
[1] = system: NCI-H2170 (Squamous Cell Lung Carcinoma); experiment: Bliss excess, mean over the matrix (fraction); higher = more synergy
Procedure, shortened: (§1)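 Cell lines in DMEM/F12 or RPMI with 10% FBS were plated in 1536-well plates, held 24 hours at 37°C, 5% CO2, then given two-drug dose matrices for 72 hours (DMSO typically 0.2%). Viability was read by CellTiter-Glo 2.0 luminescence and scaled as inhibition from 0 (vehicle wells) to 1 (blank wells). Combination Emax is the second-highest inhibition in the matrix; Bliss excess is observed combination effect minus expected EA + EB − EA·EB, EA and EB being single-agent effects.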

[2] = system: SCC90 (Head and Neck Carcinoma); experiment: as above
Procedure, shortened: as §1

[3] = system: IGROV-1 (Ovarian Carcinoma); experiment: as above
Procedure, shortened: as §1

[4] = system: RS4-11 (B-Lymphoblastic Leukemia); experiment: as above
Procedure, shortened: as §1

HT-144 (Melanoma) = experiment: as above
Procedure, shortened: as §1

GCIY (Gastric Carcinoma) = experiment: as above
Procedure, shortened: as §1

[5] = system: OCI-M1 (Acute Myeloid Leukemia); experiment: as above
Procedure, shortened: as §1

[6] = system: NCI-H1435 (Non-Small Cell Lung Carcinoma); experiment: as above
Procedure, shortened: as §1

[7] = system: NTERA-2-cl-D1 (Other Solid Carcinomas); experiment: as above
Procedure, shortened: as §1

[8] = system: CAL-85-1 (Breast Carcinoma); experiment: as above
Procedure, shortened: as §1

[9] = system: TK (B-Cell Non-Hodgkin's Lymphoma); experiment: as above
Procedure, shortened: as §1

[10] = system: JURL-MK1 (Chronic Myelogenous Leukemia); experiment: as above
Procedure, shortened: as §1

MG-63 (Osteosarcoma) = experiment: as above
Procedure, shortened: as §1

[11] = system: BC-1 (B-Cell Non-Hodgkin's Lymphoma); experiment: combination Emax (second highest fraction inhibited in the dose matrix, 72 h); higher = more inhibition; extreme values may be limits of the assay
Procedure, shortened: as §1

[12] = system: RPMI-8402 (T-Lymphoblastic Leukemia); experiment: as above
Procedure, shortened: as §1

[13] = system: TOV-21G (Ovarian Carcinoma); experiment: as above
Procedure, shortened: as §1

SK-MEL-24 (Melanoma) = experiment: as above
Procedure, shortened: as §1

[14] = system: NCI-H1944 (Lung Adenocarcinoma); experiment: as above
Procedure, shortened: as §1

[15] = system: Daudi (Burkitt's Lymphoma); experiment: as above
Procedure, shortened: as §1

[16] = system: NCI-H1435 (Non-Small Cell Lung Carcinoma); experiment: as above
Procedure, shortened: as §1
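For Bliss excess, mean over the matrix in this document: after 72 h of two-drug dosing.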

SMILES	Bliss excess [1]	Bliss excess [2]	Bliss excess [3]	Bliss excess [4]	Bliss excess (HT-144 (Melanoma))	Bliss excess (GCIY (Gastric Carcinoma))	Bliss excess [5]	Bliss excess [6]	Bliss excess [7]	Bliss excess [8]	Bliss excess [9]	Bliss excess [10]	Bliss excess (MG-63 (Osteosarcoma))	combination Emax [11]	combination Emax [12]	combination Emax [13]	combination Emax (SK-MEL-24 (Melanoma))	combination Emax [14]	combination Emax [15]	combination Emax [16]
CN(C)CCCOc1ccc(-c2ccc3ncc4c(c3c2)n(C2CCOCC2)c(=O)n4C)cn1 [AZD0156] + O=C(c1cc(Cc2n[nH]c(=O)c3ccccc23)ccc1F)N1CCN(C(=O)C2CC2)CC1 [Olaparib] (first compound max 3 µM, partner max 3 µM)	0.0947	-0.0621	0.0623	0.104	0.0767	0.0703	0.17	-0.0277	0.0068	-0.039	0.0213	0.157	0.0183	0.566	0.666	0.282	0.227	0.49	0.48	0.161
COc1nnc2ccc(N3CCC(c4ccc(OCCN5CCN(C)C(=O)[C@H]5C)cc4)CC3)nn12 [AZD5153] + C[C@@H]1COCCN1C2=NC(=NC(=C2)C3(CC3)[S@](=N)(=O)C)C4=C5C=CNC5=NC=C4 [AZD6738] (first compound max 1 µM, 7x7, partner max 10 µM)	0.0964	0.0164	0.0079	0.0145	0.0637	0.0327	-0.0165	0.0222	0.0005	-0.006	0.0034	0.0077	0.0223	0.989	1	0.891	0.636	0.88	0.843	0.3
CN(CCO)CC[C@H](CSc1ccccc1)Nc1ccc(S(=O)(=O)NC(=O)c2ccc(N3CCC([C@@H](O)c4ccccc4-c4ccc(Cl)cc4)CC3)cc2)cc1S(=O)(=O)C(F)(F)F [AZD4320] + Cn1cnc2c(F)c(Nc3ccc(Br)cc3Cl)c(C(=O)NOCCO)cc21 [Selumetinib] (first compound max 1 µM, 7x7, partner max 3 µM)	-0.0497	0.144	0.0542	-0.0125	0.15	0.0199	0.0503	0.0507	-0.0415	-0.0492	-0.032	0.0111	-0.0179	0.443	0.999	0.503	0.761	0.702	0.65	0.819
Cn1cnc2c(F)c(Nc3ccc(Br)cc3Cl)c(C(=O)NOCCO)cc21 [Selumetinib] + CCN(CCO)CCCOc1ccc2c(Nc3cc(CC(=O)Nc4cccc(F)c4)[nH]n3)ncnc2c1 [AZD2811] (first compound max 10 µM, 7x7, partner max 1 µM)	-0.0566	0.0116	-0.021	-0.0367	0.0172	-0.0127	0.0927	-0.0112	0.0056	0.0353	0.0002	0.0645	-0.0494	0.655	0.754	0.48	0.558	0.381	0.387	0.106
CC1(C)CCC(CN2CCN(c3ccc(C(=O)NS(=O)(=O)c4ccc(NCC5CCOCC5)c([N+](=O)[O-])c4)c(Oc4cnc5[nH]ccc5c4)c3)CC2)=C(c2ccc(Cl)cc2)C1 [Venetoclax] + CCN(CCO)CCCOc1ccc2c(Nc3cc(CC(=O)Nc4cccc(F)c4)[nH]n3)ncnc2c1 [AZD2811] (first compound max 1 µM, 7x7, partner max 1 µM)	-0.0185	0.169	-0.0091	0.003	-0.0132	-0.0468	0.0061	0.0104	0.0826	-0.032	0.0051	0.0208	-0.0699	0.674	0.735	0.354	0.248	0.255	0.366	0.161
NC1(C(=O)N[C@@H](CCO)c2ccc(Cl)cc2)CCN(c2ncnc3[nH]ccc23)CC1 [Capivasertib] + CC(C)n1c(=O)n(C)c2cnc3cc(F)c(-c4ccc(OCCCN5CCCCC5)nc4)cc3c21 [AZD1390] (first compound max 10 µM, 7x7, partner max 0.3 µM)	-0.0679	-0.0484	-0.0147	0.0078	-0.0688	-0.0841	-0.0268	-0.0336	0.0115	-0.0213	-0.0045	-0.0489	-0.0844	0.761	0.623	0.723	0.541	0.429	0.338	0.198
CN(CCO)CC[C@H](CSc1ccccc1)Nc1ccc(S(=O)(=O)NC(=O)c2ccc(N3CCC([C@@H](O)c4ccccc4-c4ccc(Cl)cc4)CC3)cc2)cc1S(=O)(=O)C(F)(F)F [AZD4320] + C=CCn1c(=O)c2cnc(Nc3ccc(N4CCN(C)CC4)cc3)nc2n1-c1cccc(C(C)(C)O)n1 [AZD1775] (first compound max 1 µM, partner max 1 µM)	0.0131	0.0385	0.0505	0.0285	0.0392	0.0735	0.0479	0.0482	0.13	0.0019	0.0407	0.0098	-0.0262	0.999	1	0.721	0.582	0.813	0.336	0.801
CN(CCO)CC[C@H](CSc1ccccc1)Nc1ccc(S(=O)(=O)NC(=O)c2ccc(N3CCC([C@@H](O)c4ccccc4-c4ccc(Cl)cc4)CC3)cc2)cc1S(=O)(=O)C(F)(F)F [AZD4320] + CN(C)CCCOc1ccc(-c2ccc3ncc4c(c3c2)n(C2CCOCC2)c(=O)n4C)cn1 [AZD0156] (first compound max 1 µM, 7x7, partner max 1 µM)	-0.0054	0.0037	-0.0848	-0.0209	-0.0032	0.0237	-0.0094	-0.0269	-0.0692	-0.0472	0.0083	-0.0368	-0.0816	0.17	0.903	0.209	0.252	0.322	0.119	0.651
COc1cccc(OCCCN)c1-c1cc(Nc2cnc(C#N)cn2)n[nH]1 [Prexasertib] + C[C@@H]1COCCN1C2=NC(=NC(=C2)C3(CC3)[S@](=N)(=O)C)C4=C5C=CNC5=NC=C4 [AZD6738] (first compound max 1 µM, 7x7, partner max 10 µM)	-0.0461	-0.0457	-0.0567	-0.0225	-0.0217	0.0063	-0.0504	0.0676	0.0172	0.05	-0.083	0.0056	0.0234	0.996	1	0.591	0.646	0.789	0.939	0.283
NC1(C(=O)N[C@@H](CCO)c2ccc(Cl)cc2)CCN(c2ncnc3[nH]ccc23)CC1 [Capivasertib] + C[C@@H]1COCCN1C2=NC(=NC(=C2)C3(CC3)[S@](=N)(=O)C)C4=C5C=CNC5=NC=C4 [AZD6738] (first compound max 10 µM, 7x7, partner max 10 µM)	-0.0011	-0.0541	-0.0883	-0.0276	-0.0292	-0.128	0.0211	0.0077	-0.0258	-0.0062	-0.0045	0.0117	-0.0524	0.94	0.997	0.851	0.688	0.974	0.709	0.26
CC(=O)c1c(C)c2cnc(Nc3ccc(N4CCNCC4)cn3)nc2n(C2CCCC2)c1=O [Palbociclib] + CN(CC[C@H](CSC1=CC=CC=C1)NC2=C(C=C(C=C2)S(=O)(=O)NC(=O)C3=CC=C(C=C3)N4CCC(CC4)[C@H](C5=CC=CC=C5C6=CC=C(C=C6)Cl)O)S(=O)(=O)C(F)(F)F)CCO [AZD4320] (first compound max 10 µM, 7x7, partner max 1 µM)	-0.0809	-0.0407	-0.0143	-0.0308	-0.0774		-0.014				0.0858	-0.075				0.626		0.628	0.561	
Cc1c2c(nn1C)CSCc1cc(n(C)n1)CSc1cc(c3ccccc3c1)OCCCc1c(C(=O)O)n(C)c3c-2c(Cl)ccc13 [AZD5991] + C1CN(CCC1(C(=O)N[C@@H](CCO)C2=CC=C(C=C2)Cl)N)C3=NC=NC4=C3C=CN4 [Capivasertib] (first compound max 1 µM, 7x7, partner max 3 µM)	-0.0324	-0.0533	0.0239	-0.0148	0.0582	0.0118	-0.0105	0.0331		-0.0289	-0.0039	0.0028	-0.0384	1	0.929	0.634	0.439	0.344	0.348	0.179
Cc1c2c(nn1C)CSCc1cc(n(C)n1)CSc1cc(c3ccccc3c1)OCCCc1c(C(=O)O)n(C)c3c-2c(Cl)ccc13 [AZD5991] + CN(C)CCCOc1ccc(-c2ccc3ncc4c(c3c2)n(C2CCOCC2)c(=O)n4C)cn1 [AZD0156] (first compound max 1 µM, 7x7, partner max 1 µM)	-0.0237	0.0172	-0.0297	-0.0177	-0.0352		-0.0097	0.0719	-0.0123	-0.0542	0.0046	-0.0403		1	0.795	0.161	0.232	0.259	0.288	0.233
